One may read the IC50 as the concentration that gives 50% inhibition. Low values mean inhibition by little substance, high ones a need for much substance.

This test has as its target T1, human liver glycogen phosphorylase a (HLGPa) (Homo sapiens, UniProt P06737).
T1 construct: creating a full-length cDNA fused at the 5′ end to codons for methionine-glycine-alanine-histidine; 6xHis tag (leader Met-Gly-Ala-His6-Gly-Gly) (N); made in house; host or cells: E. coli (bacterial expression plasmid pTXK1007LTev)
T1 sequence (P06737 2-847 limits assumed): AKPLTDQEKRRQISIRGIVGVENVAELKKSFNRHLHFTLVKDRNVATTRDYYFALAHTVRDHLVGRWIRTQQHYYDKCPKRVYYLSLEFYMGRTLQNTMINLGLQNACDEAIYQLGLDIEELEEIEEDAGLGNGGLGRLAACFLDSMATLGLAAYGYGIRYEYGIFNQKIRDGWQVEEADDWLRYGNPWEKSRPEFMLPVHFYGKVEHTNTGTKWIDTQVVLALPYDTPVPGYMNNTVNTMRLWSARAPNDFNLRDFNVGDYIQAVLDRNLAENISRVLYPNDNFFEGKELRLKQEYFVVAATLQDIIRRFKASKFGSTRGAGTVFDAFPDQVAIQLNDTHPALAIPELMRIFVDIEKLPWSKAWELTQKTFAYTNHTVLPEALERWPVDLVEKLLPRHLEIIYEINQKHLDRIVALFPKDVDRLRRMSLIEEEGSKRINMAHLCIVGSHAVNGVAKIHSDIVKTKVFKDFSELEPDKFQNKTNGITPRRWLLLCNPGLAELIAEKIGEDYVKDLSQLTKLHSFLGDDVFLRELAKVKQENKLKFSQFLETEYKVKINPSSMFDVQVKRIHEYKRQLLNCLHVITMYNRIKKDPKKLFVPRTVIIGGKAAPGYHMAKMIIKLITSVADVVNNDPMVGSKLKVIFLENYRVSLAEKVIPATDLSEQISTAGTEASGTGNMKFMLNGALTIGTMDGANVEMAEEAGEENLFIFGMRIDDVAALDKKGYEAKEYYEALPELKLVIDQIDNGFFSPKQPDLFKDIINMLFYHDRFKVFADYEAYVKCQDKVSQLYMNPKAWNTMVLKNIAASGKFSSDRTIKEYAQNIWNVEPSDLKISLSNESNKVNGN
Put plainly: Human liver glycogen phosphorylase a enzymatic activity assay (coupled, fluorescent resorufin readout, with and without 10 mM glucose). Format: biochemical.

The mark [1] stands for this setting: human liver glycogen phosphorylase a enzymatic activity assay.
The mark [2] stands for this setting: human liver glycogen phosphorylase a, table does not say whether with or without 10 mM glucose.

`Cc1cc(C)c(NC(=O)Nc2cc(-c3ccc(Cl)cc3)sc2C(=O)NC2(C(=O)O)CCCCC2)c(C)c1` [Example 533, 1-({[5-(4-Chlorophenyl)-3-({[(2,4,6-trimethylphenyl)amino]carbonyl}amino)-2-thienyl]carbonyl}amino)cyclohexanecarboxylic acid] returned an IC50 under setting [1] of 0.003 µM. On to `C#CCc1cc(C)c(NC(=O)Nc2cc3ccccc3cc2C(=O)N[C@H](C(=O)O)C2CCCCC2)c(C)c1` [Example 471, (2S)-cyclohexyl[({3-[({[2,6-dimethyl-4-(2-propyn-1-yl)phenyl]amino}carbonyl)amino]-2-naphthalenyl}carbonyl)amino]ethanoic acid], for which the IC50 under setting [1] came out at 0.003 µM. The molecule `CCc1cc(C)c(NC(=O)Nc2cc3ccccc3cc2C(=O)N[C@H](C(=O)O)C2CCCCC2)c(C)c1` [Example 460, (2S)-cyclohexyl({[3-({[(4-ethyl-2,6-dimethylphenyl)amino]carbonyl}amino)-2-naphthalenyl]carbonyl}amino)ethanoic acid] registered an IC50 under setting [1] of 0.002 µM. In the case of `COc1ccc(-c2cc(NC(=O)Nc3c(C)cc(C)cc3C)c(C(=O)N3CCCC[C@H]3C(=O)O)s2)cc1` [Example 448, (2S)-1-{[5-[4-(methyloxy)phenyl]-3-({[(2,4,6-trimethylphenyl)amino]carbonyl}amino)-2-thienyl]carbonyl}-2-piperidinecarboxylic acid], the IC50 under setting [1] came out at 0.37 µM.

`CCCc1cc(C)c(NC(=O)Nc2cc(-c3ccc(OC)cc3)ccc2C(=O)N[C@H](C(=O)O)[C@@H](C)OC(C)(C)C)c(C)c1` [Example 236, O-(1,1-Dimethylethyl)-N-{[3-({[(2,6-dimethyl-4-propylphenyl)amino]carbonyl}amino)-4′-(methyloxy)-4-biphenylyl]carbonyl}-L-threonine] had an IC50 under setting [2] of 0.004 µM.

Molecule `Cc1cc(Br)cc(C)c1NC(=O)Nc1cc2ccccc2cc1C(=O)N[C@H](C(=O)O)C1CCCCC1` [Example 458, (2S)-({[3-({[(4-bromo-2,6-dimethylphenyl)amino]carbonyl}amino)-2-naphthalenyl]carbonyl}amino)(cyclohexyl)ethanoic acid] displayed an IC50 under setting [1] of 0.22 µM. `Cc1cc(C)c(NC(=O)Nc2cc3ccccc3cc2C(=O)NCC2CCCCC2)c(C)c1` [Example 330, N-(cyclohexylmethyl)-3-({[(2,4,6-trimethylphenyl)amino]carbonyl}amino)-2-naphthalenecarboxamide]: the IC50 under setting [2] stood at 14.4 µM. Under setting [1], `Cc1cc(CC2CC2)cc(C)c1NC(=O)Nc1cc(F)ccc1C(=O)N[C@H](C(=O)O)C1CCCCC1` [Example 482, (2S)-cyclohexyl[({2-[({[4-(cyclopropylmethyl)-2,6-dimethylphenyl]amino}carbonyl)amino]-4-fluorophenyl}carbonyl)amino]ethanoic acid] showed an IC50 of 0.005 µM.

As for `Cc1cc(-c2ccccc2)cc(C)c1NC(=O)Nc1cc2ccccc2cc1C(=O)NC1(C(=O)O)CCCCCC1` [Example 518, 1-({[3-({[(3,5-dimethyl-4-biphenylyl)amino]carbonyl}amino)-2-naphthalenyl]carbonyl}amino)cycloheptanecarboxylic acid], under setting [1], the IC50 stood at 0.34 µM.

Under setting [1], `Cc1cc(C)c(NC(=O)Nc2cc(N)ccc2C(=O)N[C@H](C(=O)O)C2CCCCC2)c(C)c1` [Example 196, (2S)-({[4-Amino-2-({[(2,4,6-trimethylphenyl)amino]carbonyl}-amino)phenyl]carbonyl}amino)(cyclohexyl)ethanoic acid] showed an IC50 of 0.11 µM. Still for that read-out and setting: to `N#Cc1ccc(-c2cc(NC(=O)Nc3c(Cl)cccc3Cl)c(C(=O)O)s2)cc1` [Example 406, 5-(4-cyanophenyl)-3-({[(2,6-dichlorophenyl)amino]carbonyl}amino)-2-thiophenecarboxylic acid] belongs 1.11 µM; to `Cc1ccccc1NC(=O)Nc1cc2ccccc2cc1C(=O)NC(C(=O)O)c1ccccc1` (stereo not shown) [Example 95, {[3-({[(2-methylphenyl)amino]carbonyl}amino)-2-naphthoyl]amino}(phenyl)acetic acid], 9.89 µM. `COC(=O)[C@@H](NC(=O)c1cc(-c2ccccc2)sc1NC(=O)Nc1c(Cl)cccc1Cl)C1CCCCC1` [Example 383, methyl(2S)-cyclohexyl({[2-({[(2,6-dichlorophenyl)amino]carbonyl}amino)-5-phenyl-3-thienyl]carbonyl}amino)ethanoate] returned an IC50 under setting [2] of 2.37 µM. This counts as single-digit micromolar. As for `Cc1cc(C)c(NC(=O)Nc2cc(-c3ccc(CN(C)C)cc3)ccc2C(=O)N[C@H](C(=O)O)C2CCCCC2)c(C)c1` [Example 213, (2S)-Cyclohexyl({[4′-[(dimethylamino)methyl]-3-({[(2,4,6-trimethylphenyl)amino]carbonyl}amino)-4-biphenylyl]carbonyl}amino)ethanoic acid], the IC50 under setting [2] is 0.024 µM. This IC50 lies about 99-fold lower than the previous one.

As for `Cc1cc(C)c(CC(=O)Nc2cc3ccccc3cc2C(=O)N[C@H](C(=O)O)[C@@H](C)OC(C)(C)C)c(C)c1` [Example 268, O-(1,1-dimethylethyl)-N-[(3-{[(2,4,6-trimethylphenyl)acetyl]amino}-2-naphthalenyl)carbonyl]-L-threonine], the IC50 under setting [2] came to 0.05 µM. As for `Cc1cccc(C)c1NC(=O)Nc1cc(Cl)ccc1C(=O)N[C@@H](CC(=O)O)C(=O)O` [Example 174, N-{[4-Chloro-2-({[(2,6-dimethylphenyl)amino]carbonyl}amino)phenyl]carbonyl}-L-aspartic acid], the IC50 under setting [1] was found to be 0.77 µM.

In the case of `Cc1cc(C2CC2)cc(C)c1NC(=O)Nc1c(C(=O)N[C@H](C(=O)O)C2CCCCC2)ccc2ccccc12` [Example 531], half-maximal inhibition under setting [1] (IC50) required 0.019 µM. The molecule `C[C@@H](O)[C@H](NC(=O)c1cc2ccccc2cc1NC(=O)Nc1ccccc1Cl)C(=O)O` [Example 29, N-[3-({[(2-chlorophenyl)amino]carbonyl}amino)-2-naphthoyl]-L-threonine] yielded an IC50 under setting [1] of 7.26 µM. Turning to `Cc1cccc(C)c1NC(=O)Nc1cc(Cl)ccc1C(=O)O` [Example 166], it took 8.64 µM to reach half-maximal inhibition under setting [1] (IC50).

Under setting [1], `Cc1cc(C)c(NC(=O)Nc2cc(-c3ccc(F)c(F)c3)sc2C(=O)NC2(C(=O)O)CCCCC2)c(C)c1` [Example 534, 1-({[5-(3,4-difluorophenyl)-3-({[(2,4,6-trimethylphenyl)amino]carbonyl}amino)-2-thienyl]carbonyl}amino)cyclohexanecarboxylic acid] came in with an IC50 of 0.104 µM. This IC50 is about 83-fold lower than that of the molecule before. Under setting [2], `Cc1cc(C)c(NC(=O)Nc2cc(-c3ccc(F)c(F)c3)cnc2C(=O)N[C@H](C(=O)O)[C@@H](C)OC(C)(C)C)c(C)c1` [Example 324, N-{[5-(3,4-Difluorophenyl)-3-({[(2,4,6-trimethylphenyl)amino]carbonyl}amino)-2-pyridinyl]carbonyl}-O-(1,1-dimethylethyl)-L-threonine] returned a concentration for half-maximal inhibition (IC50) of 0.47 µM. Consider `CCCc1cc(C)c(NC(=O)Nc2cc(F)ccc2C(=O)N[C@H](C(=O)O)C2CCCCC2)c(C)c1` [Example 477, (2S)-cyclohexyl({[2-({[(2,6-dimethyl-4-propylphenyl)amino]carbonyl}amino)-4-fluorophenyl]carbonyl}amino)ethanoic acid], for which the IC50 under setting [1] worked out at 0.008 µM. On the same count and under the same terms, the value for `CCc1cccc(C)c1NC(=O)Nc1cc2ccccc2cc1C(=O)N[C@H](C(=O)O)C1CCCCC1` [Example 159, (2S)-cyclohexyl{[3-({[(2-ethyl-6-methylphenyl)amino]carbonyl}amino)-2-naphthoyl]amino}ethanoic acid] was 0.058 µM. With `Cc1ccccc1NC(=O)Nc1cc2ccccc2cc1C(=O)N[C@@H](C)C(=O)O` [Example 13, N-[3-({[(2-methylphenyl)amino]carbonyl}amino)-2-naphthoyl]-L-alanine], under setting [1], the IC50 was 15.5 µM.

For the molecule `Cc1cc(CNC(=O)c2cc3ccccc3cc2NC(=O)Nc2c(C)cccc2Cl)on1` [Example 6, 3-({[(2-chloro-6-methylphenyl)amino]carbonyl}amino)-N-[(3-methylisoxazol-5-yl)methyl]-2-naphthamide], the IC50 under setting [1] worked out at 35.1 µM. On to `CCCc1cc(C)c(NC(=O)Nc2cc(Cl)cnc2C(=O)NC2(C(=O)O)CCCCCCC2)c(C)c1` [Example 320, 1-({[5-Chloro-3-({[(2,6-dimethyl-4-propylphenyl)amino]carbonyl}amino)-2-pyridinyl]carbonyl}amino)cyclooctanecarboxylic acid], for which the IC50 under setting [2] was 0.038 µM. This counts as double-digit nanomolar. Take `Cc1cccc(C)c1NC(=O)Nc1cc2ccccc2cc1C(=O)N[C@@H](CCC(=O)O)C(=O)O` [Example 48, N-[3-({[(2,6-dimethylphenyl)amino]carbonyl}amino)-2-naphthoyl]-L-glutamic acid]: the midpoint of inhibition under setting [1], the IC50, lay at 1.73 µM. This lies in the single-digit micromolar range. Under setting [1], `Cc1cccc(Cl)c1NC(=O)Nc1cc(F)c(F)cc1C(=O)N[C@@H](Cc1ccccc1)C(=O)O` [Example 72, N-[2-({[(2-chloro-6-methylphenyl)amino]carbonyl}amino)-4,5-difluorobenzoyl]-L-phenylalanine] returned an IC50 of 10.9 µM.

Values taken from patent publication US20070249670A1, “Glycogen Phosphorylase Inhibitor Compounds and Pharmaceutical Compositions Thereof” (SMITHKLINE BEECHAM CORPORATION, priority 2004, published 2007).
